Two compounds from US8034826B2, “Cycloalkane[B]azaindole antagonists of prostaglandin D2 receptors” (Panmira Pharmaceuticals, LLC, priority 2008, dated 2011) can be followed below.

Molecules are shown by their SMILES.

Data set [1] in a line: Plasma concentrations of the compound in mice of the allergic rhinitis model. Format: in vivo. As to conditions: female, BALB/c, mouse, 10 mg/kg as the sodium salt, oral. The method, then:
The compounds ability to inhibit allergen-induced sneezing and nasal rubbing is assessed using a mouse model of allergic rhinitis. Methods were adapted from those detailed in Nakaya, M., et al. 2006, Laboratory Investigation, 86:917-926. Female BALB/c mice (20-25 g) are immunized by an intraperitoneal injection (i.p.) of 10 μg ovalbumin (OVA) complexed with alum in a volume 0.2 mL on days 0 and 7. Fourteen days later (day 21) mice are challenged intranasally with 20 μl of a 10 mg/mL solution of OVA. The challenge period occurs daily from days 21 to day 23. Mice (5-7/group) are randomly assigned to receive either compound or vehicle and are treated by oral gavage 1 hour prior to OVA challenge. The number of sneezes and nasal rubs are counted by an independent blinded observe during a period of 8 minutes immediately following OVA challenge on days 21, 23 and […]. A significant increase in allergen-induced sneezing and nasal rubbing occurs over the 3-day challenge period. Inhibition of this effect by select compounds is determined statistically using Graphpad prism.

A further data set deals with T1, human DP2 receptor (Homo sapiens, UniProt Q9Y5Y4).
T1 construct: expressed in transfected cells
T1 sequence (Q9Y5Y4 1-395): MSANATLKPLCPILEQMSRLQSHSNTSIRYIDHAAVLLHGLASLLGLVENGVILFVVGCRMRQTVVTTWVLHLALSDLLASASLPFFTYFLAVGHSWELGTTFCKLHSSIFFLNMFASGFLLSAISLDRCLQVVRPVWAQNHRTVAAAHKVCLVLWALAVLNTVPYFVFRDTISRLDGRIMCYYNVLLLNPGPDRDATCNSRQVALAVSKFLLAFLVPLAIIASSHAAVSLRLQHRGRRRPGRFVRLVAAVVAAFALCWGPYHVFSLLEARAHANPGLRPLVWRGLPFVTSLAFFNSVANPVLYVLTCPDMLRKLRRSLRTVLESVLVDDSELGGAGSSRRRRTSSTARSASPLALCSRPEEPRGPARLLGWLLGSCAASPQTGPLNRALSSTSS
The data set can be described thus: DP2/CRTH2 radioligand binding assay using [3H]PGD2. As to conditions: membranes of HEK293 cells expressing recombinant human DP2, 1 nM [3H]PGD2; read-out: hDP2. The method, then: The ability of a compound to bind to the human DP2 receptor is assessed via a radioligand binding assay using [^3H]PGD2. HEK293 cells stably expressing recombinant human DP2 are resuspended in 10 mM Hepes, 7.4 containing 1 mM DTT, lysed and centrifuged at 75,000×g to pellet the membranes. The membranes are resuspended in 10 mM Hepes, 7.4 containing 1 mM DTT and 10% glycerol to approximately 5 mg protein/ml. Membranes (2-10 μg protein/well) are incubated in 96-well plates with 1 nM [^3H]PGD2 and test compound in Assay Buffer (50 mM Hepes, 10 mM MnCl2, 1 mM EDTA, plus or minus 0.2% human serum albumin, pH 7.4) for 60 minutes at room temperature. The reactions are terminated by rapid filtration through Whatman GF/C glass fibre filter plates. The filter plates were pre-soaked in 0.33% polyethylenimine for 30 minutes at room temperature then washed in Wash Buffer (50 mM Hepes, 0.5 M NaCl pH 7.4) prior to harvesting. After harvesting, the filter plates are washed 3 times with 1 ml cold Wash Buffer then dried. Scintillant is then added to the plates and the radioactivity retained on the filters is determined on a Packard TopCount (Perkin Elmer). Specific binding is determined as total radioactive binding minus non-specific binding in the presence of 10 μM PGD2. IC50s were determined using GraphPad prism analysis of drug titration curves.

Usually Cmax stands for the highest concentration seen after dosing. Turning to `CN(C1CCc2c(c3ncccc3n2CC(=O)O)C1)S(=O)(=O)c1ccc(F)cc1` (racemic) [Compound 2, {8-[(4-fluoro-benzenesulfonyl)-methyl-amino]-6,7,8,9-tetrahydro-pyrido[3,2-b]indol-5-yl}-acetic acid], the Cmax in data set [1] is 770 nM. For the same compound, the concentration at 8 h in data set [1] (at 8 hours, read-out: Plasma Cmin at 8 hours) stood at 120 nM.
In the case of `O=C(O)CCn1c2c(c3ccccc31)C[C@H](NS(=O)(=O)c1ccc(F)cc1)CC2` [Ramatroban], the IC50 at human DP2 receptor is over 0.1 µM.
